The record followed here is patent publication US20240091195A1 (SANWA KAGAKU KENKYUSHO CO., LTD., priority 2021, published 2024).

The subject of data set [1] is rat pilocarpine-induced salivary secretion model. The data set can be described thus: Pilocarpine-induced salivary secretion, 0.25 cm^2 transdermal absorptive preparations (Test Example 3). As to conditions: 0.25 cm^2 applied to neck once a day, pilocarpine hydrochloride 0.5 mg/kg i.v.
Data set [2] shares this test system. The data set can be described thus: Pilocarpine-induced salivary secretion, 0.5 cm^2 transdermal absorptive preparations (Test Example 2). Format: in vivo, Hairless rats (HWY/Slc). The following applies: 0.5 cm^2 applied to neck once a day, pilocarpine hydrochloride 0.5 mg/kg i.v., n=5. The protocol: Under isoflurane anesthesia, 0.5 cm^2 of each of the transdermal absorptive preparations (including a placebo preparation) containing various glycopyrronium salts produced in accordance with Preparation Production Example 1, Comparative Preparation Production Examples 2 and 4, and Reference Preparation Production Example 1 was applied to the necks of the rats once a day every 24 hours for 2 days.
The amount of saliva secreted was calculated from the difference between the weights of the cotton ball before and after collection of saliva, and taking the average value of the amount of saliva secreted of the placebo group as 100%, the salivary secretion proportion of each individual was calculated from the following (equation).

For data set [3] the following is noted: dissolved in ethanol, stability after 24 hours.

With `C[N+]1(C)CCC(OC(=O)C(O)(c2ccccc2)C2CCCC2)C1.O=C([O-])CNC(=O)c1ccccc1` (racemic) [Glycopyrronium hippurate, (3RS, 2SR)-glycopyrronium hippurate], the entries for the “salivary secretion suppressive effect compared with placebo group” value in data set [1] (Day 1 of application), in data set [1] (Day 2 of application) and in data set [2] (Day 1 of application (23 hours after first application)) were “significant effect”, “significant effect only on Day 1 of application” and “significant salivary secretion suppressive effects”, respectively.
In the case of `C[N+]1(C)CCC(OC(=O)C(O)(c2ccccc2)C2CCCC2)C1.O=C([O-])c1ccccc1` (stereo not drawn) [Glycopyrronium benzoate, glycopyrronium benzoate], the decomposition in ethanol in data set [3] was 10%.
For the compound `C[N+]1(C)CCC(OC(=O)C(O)(c2ccccc2)C2CCCC2)C1` (stereo not drawn) [Glycopyrronium bromide, (3RS, 2SR)-glycopyrronium bromide], the “salivary secretion suppressive effect compared with placebo group” value in data set [1] (Day 1 of application, listed as glycopyrronium bromide) was “did not show any significant effect”; in data set [1] (Day 2 of application, listed as glycopyrronium bromide), “did not show any significant effect”; in data set [2] (Day 1 of application (23 hours after first application), listed as glycopyrronium-bromide), “no significant effect”.
Take `C[N+]1(C)CCC(OC(=O)C(O)(c2ccccc2)C2CCCC2)C1` (stereo not drawn) [Glycopyrronium salicylate, 3-(2-cyclopentyl-2-hydroxy-2-phenylacetoxy)-1,1-dimethylpyrrolidium salicylate]: the “salivary secretion suppressive effect compared with placebo group” value in data set [1] (Day 1 of application, listed as glycopyrronium salicylate) is “strongest and significant salivary secretion suppressive effect”; in data set [1] (Day 2 of application, listed as glycopyrronium salicylate), “strongest and significant salivary secretion suppressive effect”; in data set [2] (Day 1 of application (23 hours after first application), listed as glycopyrronium salicylate) it was “significant salivary secretion suppressive effects”; in data set [2] (Day 2 of application (47 hours after first application)), “strongest salivary secretion suppressive effect”.
As to Glycopyrronium acetate, the decomposition in ethanol in data set [3] stood at 20%.
